Consider one compound from ChEMBL document CHEMBL1147638, “(+/-)-cis-(6-Ethyl-tetrahydropyran-2-yl)-formic acid: a novel substance with antinociceptive properties” (2004).

The subject of assay [1] is Mus musculus. Description: Increase in antinociceptive activity in mouse after oral administration at the dose of 1 mg/kg in tail flick test. The assay is classed as functional. A general note: Thermal pain tests record how soon the animal reacts.
Assay [2] concerns Mus musculus. Description: Increase in analgesic activity of compound after oral administration in mouse when compared with morphine in tail flick test. The assay is classed as functional.

Regarding `CC[C@@H]1CCC[C@H](C(=O)O)O1`, the Increase is on record as 40% in assay [1] and 55% in assay [2].
